The text below walks through data of patent US20190054097A1, “COMPOSITIONS TARGETING SENESCENT CELLS AND THE USES THEREOF” (BioVentures, LLC, priority 2016, published 2019).

Where two headings read alike, the source gives them in different places.

In assay [1] the test system is senescent cells. Put plainly: Cisplatin-induced peripheral neuropathy (CIPN) in p16-3MR transgenic mice, Von Frey assay and Hot Plate Analgesia Meter. The format is in vivo. Particulars: GCV 25 mg/kg/day or ABT263 50 mg/kg/day i.p., 5 days per cycle, 2 cycles, FIG. 8-11. How it is done: CIPN was induced in young adult male and female p16-3MR mice by intraperitoneal (i.p.) injection of cisplatin (Lake Zurich, Ill., USA) at 2.3 mg/kg/d for 5 days per cycle for 2 cycles with an interval of 5 days between the cycles. The induction of CIPN was measured by analyzing the mechanical sensitivity using the Von Frey assay the day before Cisplatin treatment and on various day after Cisplatin treatment. N=5-6 mice per group.
Mice were treated as described in FIG. 8. The induction of CIPN was measured by analyzing the sensitivity to thermal allodynia using the Hot Plate Analgesia Meter on various day after Cisplatin treatment. N=5-6 mice per group.
To determine the effect of senescent cells on the induction of CIPN, cisplatin-treated mice were administered with vehicle, ganciclovir (GCV) at 25 mg/kg/day for 5 days per cycle for 2 cycles with an interval of 17 days between the cycles, or ABT263 at 50 mg/kg/day for 5 days per cycle for 2 cycles with an interval of 17 days between the cycles by i.p. injection at the indicated times after cisplatin treatment. […] The induction of CIPN was measured by analyzing the mechanical sensitivity using the Von Frey assay (FIG. 8 and FIG. 9) and by analyzing the sensitivity to thermal allodynia using the Hot Plate Analgesia Meter (FIG. 10 and FIG. 11) the day before Cisplatin treatment and on various day after Cisplatin treatment.

Assay [2] deals with Normal WI38 (NSC). The assay can be described thus: Viability of normal WI38 cells, PI staining and flow cytometry, 72 hours. The assay is classed as cell-based. The procedure: (§1) Normal WI38 (NSC) and IR-induced senescent WI38 cells (IR-SC) were incubated with vehicle or increasing concentrations of compounds of Formula (I) or Formula (II) for 72 hours. The cells were digested with 0.25% trypsin and 1 mM EDTA, and harvested in PBS containing 2% FBS. After incubation with propidium iodide (PI, 100 ng/ml) in PBS at room temperature for 1 minute, cells were centrifuged at 1,200 rpm for 6 minutes to remove PI and then resuspended in PBS containing 2% FBS for analysis using a flow cytometer. Viable cells (PI− cells) were analyzed by flow cytometry at a constant flow rate to count the number of cells and calculated as a percentage of control cells treated with vehicle. Table 1 depicts the EC50 values of the compounds of Formula (I) and compounds of Formula (II) against normal WI38 and IR-induced senescent WI38.
(In flow cytometry, cells or beads pass a laser one at a time.)

The test system of assay [3] is IR-induced senescent WI38 cells (IR-SC). Put plainly: Viability of IR-induced senescent WI38 cells, PI staining and flow cytometry, 72 hours. The format is cell-based. Particulars: for EC50: IR-induced senescent WI38 cells, 72 hours, viable PI- cells as percentage of vehicle control; for Ratio NSC/SC: ratio of WI38 EC50 in normal cells to EC50 in IR-induced senescent cells. How it is done: as §1

For assay [4], the system named is NCI-H146 cancer cells. The assay can be described thus: Cancer cell viability by MTS, 72 hours. The assay is classed as cell-based. How it is done: (§2) RS4; 11 and NCI-H146 cancer cells were incubated with vehicle or increasing concentrations of compounds of Formula (I) and Formula (II). At 72 hours post-treatment cell viability was measured by MTS and EC50 was calculated as a percentage of control cells treated with vehicle. Table 1 depicts the EC50 values of compounds of Formula (I) and Formula (II) against RS4; 11 and NCI-H146.

In assay [5] the test system is RS4; 11 cancer cells. The assay can be described thus: Cancer cell viability by MTS, 72 hours. Particulars: 11 cells. The format is cell-based. How it is done:
as §2

Setting [6] is: Homo sapiens, WI-38, viable PI- cells as percentage of vehicle control.
[7] abbreviates: viable PI- cells as percentage of vehicle control.

On to `Nc1nc(O)c2ncn(COC(CO)CO)c2n1` [GCV, ganciclovir], for which the “Reversal of cisplatin-induced peripheral neuropathy” value in assay [1] is “reversed cisplatin-induced peripheral neuropathy (CIPN)”.
`CC1(C)CCC(c2ccc(Cl)cc2)=C(CN2CCN(c3ccc(C(=O)NS(=O)(=O)c4ccc(N[C@H](CCN5CCN(C(=O)CCCn6cc(COCCOCCNc7cccc8c7C(=O)N(C7CCC(=O)NC7=O)C8=O)nn6)CC5)CSc5ccccc5)c(S(=O)(=O)C(F)(F)F)c4)cc3)CC2)C1` (stereo partly drawn) [PZ-15227, 4-(4-((4′-chloro-4,4-dimethyl-3,4,5,6-tetrahydro-[1,1′-biphenyl]-2-yl)methyl)piperazin-1-yl)-N-((4-(((2R)-4-(4-(4-(4-((2-(2-((2-(2,6-dioxopiperidin-3-yl)-1,3-dioxoisoindolin-4-yl)amino)ethoxy)ethoxy)methyl)-1H-1,2,3-triazol-1-yl)butanoyl)piperazin-1-yl)-1-(phenylthio)butan-2-yl)amino)-3-((trifluoromethyl)sulfonyl)phenyl)sulfonyl)benzamide]: the EC50 in assay [2] (setting [6]) was greater than 10000 nM; in assay [3] (Homo sapiens, WI-38) it was 108 nM; in assay [4] (Homo sapiens), 68.9 nM; in assay [5] (Homo sapiens), 114 nM. In assay [3], the “Ratio NSC/SC” value is reported as greater than 92.
As for `CC(C)(C)OC(=O)N1CCN(CC#Cc2ccc(OCCCc3sc(N4CCc5cccc(C(=O)Nc6nc7ccccc7s6)c5C4)nc3C(=O)O)c(F)c2)CC1` [XZ-13861], the EC50 in assay [2] (setting [7]) came to 32800 nM; in assay [3] it was 3120 nM. In assay [3] (FIG. 2A, FIG. 2B, dose dependent), the “Selective inhibition of IR-SC WI38 cells versus normal WI38 cells” value is “selectively inhibits IR-SC WI38 cells but not normal WI38 cells in a dose-dependent manner”.
On to `Cc1ncsc1-c1ccc(CNC(=O)[C@@H]2C[C@@H](O)CN2C(=O)[C@@H](NC(=O)COCCOCCOCc2cn(CCCC(=O)N3CCN(CC#Cc4ccc(OCCCc5sc(N6CCc7cccc(C(=O)Nc8nc9ccccc9s8)c7C6)nc5C(=O)O)c(F)c4)CC3)nn2)C(C)(C)C)cc1` [XZ-14455, 2-(8-(benzo[d]thiazol-2-ylcarbamoyl)-3,4-dihydroisoquinolin-2(1H)-yl)-5-(3-(2-fluoro-4-(3-(4-(4-(4-((S)-12-((2S,4R)-4-hydroxy-2-((4-(4-methylthiazol-5-14)benzyl)carbamoyl)pyrrolidine-1-carbonyl)-13,13-dimethyl-10-oxo-2,5,8-trioxa-11-azatetradecyl)-1H-1,2,3-triazol-1-yl)butanoyl)piperazin-1-yl)prop-1-yn-1-yl)phenoxy)propyl)thiazole-4-carboxylic acid], for which the EC50 in assay [2] (setting [7]) was 5000 nM; in assay [3], 1470 nM; in assay [4] it was greater than 2000 nM; in assay [5], greater than 2000 nM. In addition, the “Ratio NSC/SC” value in assay [3] was determined as 3.40.
With `CC1(C)CCC(c2ccc(Cl)cc2)=C(CN2CCN(c3ccc(C(=O)NS(=O)(=O)c4ccc(N[C@H](CCN5CCN(C(=O)COCCOCCOCCNc6cccc7c6C(=O)N(C6CCC(=O)NC6=O)C7=O)CC5)CSc5ccccc5)c(S(=O)(=O)C(F)(F)F)c4)cc3)CC2)C1` (stereo partly drawn) [XZ-14510, 4-(4-((4′-chloro-4,4-dimethyl-3,4,5,6-tetrahydro-[1,1′-biphenyl]-2-yl)methyl)piperazin-1-yl)-N-((4-(((2R)-4-(4-(2-(2-(2-(2-((2-(2,6-dioxopiperidin-3-yl)-1,3-dioxoisoindolin-4-yl)amino)ethoxy)ethoxy)ethoxy)acetyl)piperazin-1-yl)-1-(phenylthio)butan-2-yl)amino)-3-((trifluoromethyl)sulfonyl)phenyl)sulfonyl)benzamide], the “Ratio NSC/SC” value in assay [3] is greater than 56.
Take `CC1(C)CCC(CN2CCN(c3ccc(C(=O)NS(=O)(=O)c4ccc(NCC5CCN(C(=O)CCCn6cc(COCCOCCOCCNc7cccc8c7C(=O)N(C7CCC(=O)NC7=O)C8=O)nn6)CC5)c([N+](=O)[O-])c4)c(Oc4cnc5[nH]ccc5c4)c3)CC2)=C(c2ccc(Cl)cc2)C1` (stereo not shown) [XZ-14523, 2-((1H-pyrrolo[2,3-b]pyridin-5-yl)oxy)-4-(4-((4′-chloro-5,5-dimethyl-3,4,5,6-tetrahydro-[1,1′-biphenyl]-2-yl)methyl)piperazin-1-yl)-N-((4-(((1-(4-(4-((2-(2-(2-((2-(2,6-dioxopiperidin-3-yl)-1,3-dioxoisoindolin-4-14)amino)ethoxy)ethoxy)ethoxy)methyl)-1H-1,2,3-triazol-1-yl)butanoyl)piperidin-4-yl)methyl)amino)-3-nitrophenyl)sulfonyl)benzamide]: the EC50 is greater than 10000 nM in assay [2] (setting [7]), greater than 10000 nM in assay [3], 1260 nM in assay [4] and 161 nM in assay [5].
Take `CC1(C)CCC(c2ccc(Cl)cc2)=C(CN2CCN(c3ccc(C(=O)NS(=O)(=O)c4ccc(N[C@H](CCN5CCN(CCOCCOCCOCCNc6cccc7c6C(=O)N(C6CCC(=O)NC6=O)C7=O)CC5)CSc5ccccc5)c(S(=O)(=O)C(F)(F)F)c4)cc3)CC2)C1` (stereo partly drawn) [XZ-15418, 4-(4-((4′-chloro-4,4-dimethyl-3,4,5,6-tetrahydro-[1,1′-biphenyl]-2-yl)methyl)piperazin-1-yl)-N-((4-(((2R)-4-(4-(2-(2-(2-(2-((2-(2,6-dioxopiperidin-3-yl)-1,3-dioxoisoindolin-4-yl)amino)ethoxy)ethoxy)ethoxy)ethyl)piperazin-1-yl)-1-(phenylthio)butan-2-yl)amino)-3-((trifluoromethyl)sulfonyl)phenyl)sulfonyl)benzamide]: the EC50 was greater than 10000 nM in assay [2] (setting [6]); 172 nM in assay [3] (Homo sapiens, WI-38); 12.3 nM in assay [5] (Homo sapiens).

As usually defined, the EC50 is the concentration that produces a half-maximal response. Read a low EC50 as an effect from little substance.
